# Laboratory results as given in patent US10988523B2, “Modified lipidated Relaxin B chain peptides and their therapeutic use” (Sanofi, priority 2018, dated 2021).
# *1 amine or outer side, *2 acyl side, *3 side chain or, on linkers, in order; H or OH if unused. Where a SMILES comes first, the peptide text is derived from it. Side-chain parts run from the residue outwards. [ ]: non-standard residue; d: D form. The star is where a group is joined. γGlu = O=C(O)[C@H](CCC(=O)[*:2])N[*:1]; Stearoyl = CCCCCCCCCCCCCCCCCC(=O)*; Palmitoyl = CCCCCCCCCCCCCCCC(=O)*; Myristoyl = CCCCCCCCCCCCCC(=O)*; PEG4 = NCCOCCOCCOCCOCCC(=O)O; αMeK = C[C@](N)(CCCCN)C(=O)O; Nle = CCCC[C@H](N)C(=O)O; AEEA = NCCOCCOCC(=O)O; Aib = CC(C)(N)C(=O)O
# Target: T1, RXFP1 (Homo sapiens, UniProt Q9HBX9)
# T1 construct: OVCAR5 cells expressing endogenous RXFP1; endogenous in cells; host or cells: OVCAR5 cells
# T1 sequence (Q9HBX9 1-757): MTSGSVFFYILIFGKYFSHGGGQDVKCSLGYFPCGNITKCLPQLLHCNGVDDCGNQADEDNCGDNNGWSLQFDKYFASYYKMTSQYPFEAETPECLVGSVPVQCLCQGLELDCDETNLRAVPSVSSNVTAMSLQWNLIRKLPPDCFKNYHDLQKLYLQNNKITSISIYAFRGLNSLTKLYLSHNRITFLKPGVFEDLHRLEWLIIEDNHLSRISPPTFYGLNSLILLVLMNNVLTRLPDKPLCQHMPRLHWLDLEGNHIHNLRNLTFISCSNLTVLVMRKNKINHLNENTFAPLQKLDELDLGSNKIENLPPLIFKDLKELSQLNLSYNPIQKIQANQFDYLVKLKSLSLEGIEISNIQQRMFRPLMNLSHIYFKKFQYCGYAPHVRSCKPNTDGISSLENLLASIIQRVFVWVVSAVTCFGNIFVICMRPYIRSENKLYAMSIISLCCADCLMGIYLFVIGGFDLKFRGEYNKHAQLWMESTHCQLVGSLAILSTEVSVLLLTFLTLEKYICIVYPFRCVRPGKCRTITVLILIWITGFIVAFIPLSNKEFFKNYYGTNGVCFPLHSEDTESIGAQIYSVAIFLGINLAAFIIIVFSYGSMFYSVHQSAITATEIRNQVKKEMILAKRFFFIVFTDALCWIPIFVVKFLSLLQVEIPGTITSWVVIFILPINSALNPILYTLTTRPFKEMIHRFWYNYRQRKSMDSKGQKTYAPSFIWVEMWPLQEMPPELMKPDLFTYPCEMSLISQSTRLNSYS
# Test: OVCAR5 cAMP assay (HTRF), RXFP1 agonist activity
# Format: cell-based
# Details: OVCAR-5; maximal cAMP relative to H2-relaxin maximum (100%); read-out: EMax, OVCAR 5 cells (cAMP)
# Outline: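 OVCAR5 cells (endogenous RXFP1) pretreated 40 min at 37° C with 1 mM IBMX, then exposed to peptides in serum-free medium for 30 min at 37° C. Lysate cAMP read by HTRF; EC50 from variable-slope sigmoidal fit; Emax as % of H2-relaxin maximal cAMP in same run.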
row,SMILES,Emax [%]
1,CCCCCCCCCCCCCC(=O)N[C@@H](CCC(=O)N[C@@H](CCC(=O)N[C@@H](CCC(=O)N[C@@H](CCC(=O)NCCCC[C@H](NC(=O)COCCOCCNC(=O)COCCOCCNC(=O)COCCOCCNC(=O)COCCOCCNC(=O)[C@H](CCCCNC(C)=O)NC(=O)[C@H](C)NC(=O)[C@H](CCCNC(=N)N)NC(=O)[C@](C)(CCCCN)NC(=O)[C@H](CO)NC(=O)[C@H](Cc1ccccc1)NC(=O)[C@@H](NC(=O)[C@H](CO)NC(=O)[C@H](CCC(N)=O)NC(=O)CNC(=O)[C@H](CCC(=O)O)NC(=O)C(C)(C)NC(=O)C(C)(C)NC(=O)[C@@H](NC(=O)[C@H](CCCCNC(C)=O)NC(=O)[C@H](C)NC(=O)[C@H](CCCNC(=N)N)NC(=O)[C@@H](NC(=O)[C@H](CCCCN)NC(=O)[C@H](CCC(=O)O)NC(=O)[C@H](CCCNC(=N)N)NC(=O)CNC(=O)[C@H](CCC(=O)O)NC(=O)[C@H](CC(C)C)NC(C)=O)C(C)C)[C@@H](C)CC)[C@@H](C)O)C(N)=O)C(=O)O)C(=O)O)C(=O)O)C(=O)O [compound 190] (Ac-LEGREKVRAK(Ac)I[Aib][Aib]EGQSTFS[αMeK]RAK(Ac)[AEEA][AEEA][AEEA][AEEA]K([γGlu-γGlu-γGlu-γGlu-Myristoyl])-NH2),93
2,CCCCCCCCCCCCCCCC(=O)N[C@@H](CCC(=O)N[C@@H](CCC(=O)NCCCC[C@H](NC(=O)[C@H](CCCNC(=N)N)NC(=O)C(C)(C)NC(=O)[C@H](CO)NC(=O)[C@H](Cc1c[nH]c2ccccc12)NC(=O)[C@@H](NC(=O)[C@H](CO)NC(=O)[C@H](CCSC)NC(=O)CNC(=O)[C@H](CCC(=O)O)NC(=O)C(C)(C)NC(=O)C(C)(C)NC(=O)[C@@H](NC(=O)[C@H](CCC(N)=O)NC(=O)[C@H](C)NC(=O)[C@H](CCCNC(=N)N)NC(=O)[C@@H](NC(=O)[C@H](CCCCN)NC(=O)[C@H](CCC(=O)O)NC(=O)[C@H](CCCNC(=N)N)NC(=O)CNC(=O)[C@H](CCC(=O)O)NC(=O)[C@H](CC(C)C)NC(C)=O)C(C)C)[C@@H](C)CC)[C@@H](C)O)C(N)=O)C(=O)O)C(=O)O [compound 5] (Ac-LEGREKVRAQI[Aib][Aib]EGMSTWS[Aib]RK([γGlu-γGlu-Palmitoyl])-NH2),105
3,CCCCCCCCCCCCCCCCCC(=O)N[C@@H](CCC(=O)N[C@@H](CCC(=O)N[C@@H](CCC(=O)NCCCC[C@H](NC(=O)CCOCCOCCOCCOCCNC(=O)CCOCCOCCOCCOCCNC(=O)[C@H](CCCCNC(C)=O)NC(=O)[C@H](CCCCN)NC(=O)[C@H](CCCNC(=N)N)NC(=O)C(C)(C)NC(=O)[C@H](CO)NC(=O)[C@H](Cc1c[nH]c2ccccc12)NC(=O)[C@@H](NC(=O)[C@H](CO)NC(=O)[C@H](CCCC)NC(=O)CNC(=O)[C@H](CCC(=O)O)NC(=O)C(C)(C)NC(=O)C(C)(C)NC(=O)[C@@H](NC(=O)[C@H](CCCCNC(C)=O)NC(=O)[C@H](C)NC(=O)[C@H](CCCNC(=N)N)NC(=O)[C@@H](NC(=O)[C@H](CCCCN)NC(=O)[C@H](CCC(=O)O)NC(=O)[C@H](CCCNC(=N)N)NC(=O)CNC(=O)[C@H](CCC(=O)O)NC(=O)[C@H](CC(C)C)NC(C)=O)C(C)C)[C@@H](C)CC)[C@@H](C)O)C(N)=O)C(=O)O)C(=O)O)C(=O)O [compound 124] (Ac-LEGREKVRAK(Ac)I[Aib][Aib]EG[Nle]STWS[Aib]RKK(Ac)[PEG4][PEG4]K([γGlu-γGlu-γGlu-Stearoyl])-NH2),88
